Article PMC5482243 (Investigative Ophthalmology & Visual Science, 2017)
Where two headings read alike, the source gives them in different places.

Legend:
Assay in all cases: β-arrestin recruitment assay
Type in all cases: cell-based
[1] = biological target: T1, GPR143 (pm-GPR143) (Homo sapiens, UniProt P51810, E330A/L223A/L224A/W329A)
[2] = biological target: T1, GPR143 (pm-GPR143); remark: listed apart in the source
[3] = biological target: GPR143 (wt-GPR143) (Homo sapiens, UniProt P51810)
Chain of GPR143 (wt-GPR143) (P51810 whole entry): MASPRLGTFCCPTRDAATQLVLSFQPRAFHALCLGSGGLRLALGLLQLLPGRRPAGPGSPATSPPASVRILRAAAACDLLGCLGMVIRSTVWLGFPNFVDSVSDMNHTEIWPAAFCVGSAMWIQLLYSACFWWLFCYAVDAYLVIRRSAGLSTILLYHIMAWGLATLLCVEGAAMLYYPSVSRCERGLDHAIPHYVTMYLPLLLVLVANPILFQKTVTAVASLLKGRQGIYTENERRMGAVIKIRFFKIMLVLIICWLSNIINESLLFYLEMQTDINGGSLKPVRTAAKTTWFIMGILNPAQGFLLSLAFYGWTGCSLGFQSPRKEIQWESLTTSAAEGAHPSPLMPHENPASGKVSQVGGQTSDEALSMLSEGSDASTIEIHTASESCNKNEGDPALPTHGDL

T1 sequence (P51810 whole entry L223A/L224A/W329A/E330A): as the sequence (P51810 whole entry) above, with L223A, L224A, W329A, E330A counted along it

For `CCOc1ccc2nc3cc(N)ccc3c(N)c2c1` [ethacridine lactate], the EC50 [1] was 26.1 ± 1.03 µM.
For `O=C(Nc1ccc([N+](=O)[O-])cc1Cl)c1cc(Cl)ccc1O` [niclosamide], the EC50 [1] was 3.4 ± 1.11 µM.
`O=c1[nH]c2ccccc2n1C1CCN(CCCC(c2ccc(F)cc2)c2ccc(F)cc2)CC1` [pimozide] gave an EC50 [2] of 2.72 ± 1.17 µM and an EC50 [3] of 4.62 ± 1.37 µM.
